Test results: patent publication US20110086809A1, “Enteral Administration Of Arginine-Glutamine Dipeptide To Support Retinal, Intestinal, Or Nervous System Development” (priority 2009, published 2011)

Key:
[1] = tested on: intestinal injury induced by hyperoxia in a mouse model; assay: Histological intestinal damage score in hyperoxia-exposed neonatal mice; assay type: in vivo; settings: ileum histology, score 0 to 4+ (0=no damage, 4=severe damage); hyperoxic conditions plus dipeptide by gavage; hyperoxia alone 3.5; FIG. 2
Procedure: (§1) In the neonatal mouse model of oxygen-induced retinopathy, 7-day old mice are placed with their nursing dams in a 75% oxygen atmosphere for 5 days. Mouse pups receive twice a day gavage feedings of arginine-glutamine dipeptide or control solution (20 μL) starting on postnatal day 12 (P12) and continuing through postnatal day 17 (P17). In one experiment, different dosages of arginine-glutamine dipeptide (1.0, 2.5 and 5 g/kg·day as a hydrochloride salt, Bachem, Babendorf, Switzerland) are tested. In a second experiment, arginine-glutamine dipeptide (5 g/kg day) is given and a normoxia group is used as a control.
(§2) After the fifth day following return to normoxia (P17), the animals are euthanized by injection of a lethal dose of a combination of ketamine (70 mg/kg body weight) and xylazine (15 mg/kg body weight) followed by cervical dislocation.
Intestinal injury is evaluated using histological techniques. A portion of intestine from the ileum is fixed in 10% (w·v) neutral buffered formalin for 24 hours for light microscopy. The intestine is paraffin embedded, cut into 4 μm sections, mounted on glass slides, and stained with hematoxylin and eosin according to standard procedures. Histological analyses are performed using a damage scoring system from 0 to 4+ (0=no damage, 4=severe damage with mucosal sloughing) to determine the severity of the intestinal injury.

[2] = tested on: Bcl-2; assay: Brain Bcl-2 levels by immunoblotting in hyperoxia-exposed neonatal mice; assay type: in vivo; settings: mouse brain, hyperoxic conditions, treated with dipeptide; FIG. 3
Procedure: as §1, §2
Bcl-2 levels are determined using standard immunoblotting techniques. The brain is homogenized with a Polytron homogenizer, and the homogenates are stored in aliquots at −80° C. Gel electrophoresis is performed using the BioRad electrophoresis system (Carlsbad, Calif.). […] Protein bands are quantified by densitometry.

[3] = tested on: neonatal mouse model of oxygen-induced retinopathy; assay: Neonatal mouse model of oxygen-induced retinopathy, pre-retinal nuclei count; assay type: in vivo; settings: FIG. 1
Procedure: In the neonatal mouse model of oxygen-induced retinopathy, 7-day old mice are placed with their nursing dams in a 75% oxygen atmosphere for 5 days. Mouse pups receive twice a day gavage feedings of arginine-glutamine dipeptide or control solution (50 μL) starting on postnatal day 12 (P12) and continuing through postnatal day 17 (P17). Gavage feeds include a control (0.9% sodium chloride) and the test compounds and different doses of arginine-glutamine dipeptide (1.0, 2.5 and 5 g/kg·day). The daily dosage of the dipeptide is divided evenly between the two daily gavage feedings.
After the fifth day following return to normoxia (P17), the animals are euthanized by injection of a lethal dose of a combination of ketamine (70 mg/kg body weight) and xylazine (15 mg/kg body weight) followed by cervical dislocation. The eyes are removed and fixed in 4% paraformaldehyde, embedded in paraffin, and sectioned. Pre-retinal nuclei are counted by masked observers. Efficacy of treatment is calculated as the percent average nuclei per section in the eyes of arginine-glutamine dipeptide treated animals versus control animals.
Some of the eyes are taken for qualitative retinal flatmount analysis. For these mice, at the time of euthanasia, the mice are perfused with fluorescein isothiocyanate-labeled dextran to visualize the vasculature. […]

[4] = tested on: caspase-3; assay: Brain caspase-3 colorimetric activity assay in hyperoxia-exposed neonatal mice; assay type: in vivo, mouse; settings: compared to hyperoxic mice; FIG. 4
Procedure: as §1, §2
Caspase-3 activity is determined using a Caspase-3 Colorimetric Activity Assay Kit (Chemicon International, Inc., Temecula, Calif.). The brain is homogenized with a Polytron homogenizer, and the homogenates are stored in aliquots at −80° C.

arginine-glutamine dipeptide
average intestinal damage score [1]: 1.67
increased Bcl-2 expression in brain [2]: 33%
dose/response of reduction of nuclei per section ([3]; dosages between 1 g/kg·day and 5 g/kg·day, highest effectiveness at 5 g/kg·day): highest level of effectiveness was shown at 5 g/kg·day
average number of nuclei per section in the eyes ([3]; neonatal mice exposed to hyperoxia (75% oxygen, 5 days), gavage twice a day P12-P17, 1, 2.5 and 5 g/kg·day, versus control (0.9% sodium chloride)): decreased at all levels of administration
reduction in brain caspase-3 activity [4]: 32%
